Assay results taken from US11866707B2, “Use of non-coding RNA SNHG17 as biomarker and therapeutic target” (ZHEJIANG CANCER HOSPITAL, priority 2022, dated 2024).

Legend:
[1] = system: SNHG17-overexpressing breast cancer cells (MCF-7); test: Sensitivity detection of breast cancer cells to fulvestrant (MTT); format: cell-based, human; conditions: fulvestrant 2, 4, 8, 16 μmol/L, 48 h, SNHG17-overexpressing cells vs control cells (FIG. 5)
Experimental: MCF-7 and SNHG17 overexpressing breast cancer cells in the logarithmic growth phase were inoculated into 96-well plates (with DMEM complete medium) at a density of 3000 cells per well. Then cells were cultured in a 37° C. 5V/V % CO2 incubator until the cells adhered to the plates. Then added fulvestrant respectively, and the final concentration was 0 (cell control group), 2, 4, 8, and 16 μmol/L. Each concentration was set in 4 duplicate wells, and a blank control group was set at the same time. After being cultured for 48 hours in a 37° C., 5V/V % CO2 incubator, 20 μL of MTT (5 g/L) solution was added to each well. After culturing for 4 hours, discarded the medium and added triple solution (10 g SDS, 5 mL of isobutanol, 0.1 mL of 10M hydrochloric acid, and ddH2O to make a 100 mL solution) and incubated overnight. Then the absorbance (A570 nm) value was measured at 570 nm with an enzyme calibration. The triple solution was used as a blank control group to detect the cells' survival rate. Growth inhibition rate (%)=(control group A570 nm—experimental group A570 nm)/cell control group A570 nm×100%. The growth inhibition rate of fulvestrant on breast cancer cells is shown in FIG. 5, wherein C stands for SNHG17-overexpressing control breast cancer cells, D stands for SNHG17-overexpressing breast cancer cells, *P<0.05, **P<0.01 indicates the data had statistical significance.

[2] = system: SNHG17-overexpressing breast cancer cells (MCF-7); test: Plate colony formation experiment, fulvestrant resistance of SNHG17-overexpressing cells; format: cell-based, human; conditions: medium containing 6 μmol/L fulvestrant, 15 days; SNHG17-overexpressing cells vs SNHG17-overexpressing control cells (FIG. 4)
Experimental: The above-mentioned SNHG17-overexpressing control breast cancer cells and SNHG17-overexpressing breast cancer cells were selected for experiments to detect the drug resistance to fulvestrant. 1000 well-grown cells were inoculated into a culture plate (diameter 60 mm) containing DMEM complete medium, then gently shook the culture plate to disperse the cells evenly. The cells were incubated at 37° C., 5V/V % CO2 for 15 days, and replaced complete medium every 3 days. When colonies were visible to the naked eye in the culture dish, the culture was terminated and the culture medium was discarded. After that, the cells were carefully washed twice by PBS and dried. Methanol was used for anchor cells for 15 min, then the methanol was discarded and cells were air-dried. Cells were stained with Giemsa staining solution (purchased from Merck) for 10 min, then the staining solution was slowly washed away with running water, and cells were air-dried. Experiments were divided into blank group (SNHG17-overexpressing control breast cancer stable cells, medium containing 6 μmol/L DMSO), control group (SNHG17-overexpressing control breast cancer cells, medium containing 6 μmol/L fulvestrant), overexpression group (SNHG17-overexpressing breast cancer cells, medium containing 6 μmol/L fulvestrant) 3 groups. […]

SMILES: C[C@]12CC[C@@H]3c4ccc(O)cc4C[C@@H](CCCCCCCCC[S+]([O-])CCCC(F)(F)C(F)(F)F)[C@H]3[C@@H]1CC[C@@H]2O (some centres unmarked) [fulvestrant]
- growth inhibition rate of fulvestrant on breast cancer cells [1]: significantly greater than that in SNHG17-overexpressing control breast cancer cells
- number of colonies formed [2]: greater than that of SNHG17-overexpressing control breast cancer cells
